{"source": "ChEMBL document CHEMBL3727360", "about": "“Tetrahydroisoquinolines as selective nadph oxidase 2 inhibitors” (2014)", "key": {"[1]": {"target": "Xanthine dehydrogenase/oxidase (Bos taurus, UniProt P80457)", "sequence (P80457 whole entry)": "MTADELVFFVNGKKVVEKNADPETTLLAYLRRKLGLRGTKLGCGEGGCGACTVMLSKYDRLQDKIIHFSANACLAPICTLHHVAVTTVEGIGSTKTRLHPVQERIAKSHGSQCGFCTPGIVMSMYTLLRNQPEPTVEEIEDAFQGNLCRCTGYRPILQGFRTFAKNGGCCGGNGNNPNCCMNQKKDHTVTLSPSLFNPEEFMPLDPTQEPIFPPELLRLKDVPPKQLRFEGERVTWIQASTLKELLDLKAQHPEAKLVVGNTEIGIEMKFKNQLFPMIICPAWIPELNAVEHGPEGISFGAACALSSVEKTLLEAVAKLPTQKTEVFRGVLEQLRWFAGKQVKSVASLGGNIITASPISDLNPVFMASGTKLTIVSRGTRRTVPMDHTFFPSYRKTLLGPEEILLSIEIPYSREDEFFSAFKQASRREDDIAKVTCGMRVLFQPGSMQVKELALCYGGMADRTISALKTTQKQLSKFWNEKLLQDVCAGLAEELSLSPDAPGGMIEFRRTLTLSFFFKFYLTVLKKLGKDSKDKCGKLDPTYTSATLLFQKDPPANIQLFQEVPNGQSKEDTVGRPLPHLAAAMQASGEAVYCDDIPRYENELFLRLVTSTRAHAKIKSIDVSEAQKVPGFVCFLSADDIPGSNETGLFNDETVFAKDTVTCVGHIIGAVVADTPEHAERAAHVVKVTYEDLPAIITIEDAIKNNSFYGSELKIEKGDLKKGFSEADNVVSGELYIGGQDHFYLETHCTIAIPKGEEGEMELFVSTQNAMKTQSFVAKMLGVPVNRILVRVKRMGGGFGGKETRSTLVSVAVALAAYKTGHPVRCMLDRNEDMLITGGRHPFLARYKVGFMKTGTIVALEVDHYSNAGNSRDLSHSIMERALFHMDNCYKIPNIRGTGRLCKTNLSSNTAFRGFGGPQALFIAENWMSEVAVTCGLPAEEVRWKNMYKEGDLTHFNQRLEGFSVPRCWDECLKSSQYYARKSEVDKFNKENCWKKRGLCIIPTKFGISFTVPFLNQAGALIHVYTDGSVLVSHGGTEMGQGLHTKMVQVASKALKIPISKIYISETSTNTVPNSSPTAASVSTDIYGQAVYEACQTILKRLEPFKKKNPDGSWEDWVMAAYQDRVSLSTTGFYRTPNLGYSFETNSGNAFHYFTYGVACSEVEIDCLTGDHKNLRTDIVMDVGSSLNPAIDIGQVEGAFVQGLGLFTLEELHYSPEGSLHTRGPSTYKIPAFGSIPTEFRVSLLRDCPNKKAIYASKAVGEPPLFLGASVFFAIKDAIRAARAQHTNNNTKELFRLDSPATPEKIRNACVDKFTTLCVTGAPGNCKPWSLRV", "test": "Inhibition of bovine xanthine-oxidase assessed as H2O2 production at 25 to 50 uM by amplex red dye based fluorescence assay", "conditions": "cattle"}, "NADPH oxidase 4": {"target": "T1, NADPH oxidase 4 (Homo sapiens, UniProt Q9NPH5)", "T1 sequence (Q9NPH5 whole entry)": "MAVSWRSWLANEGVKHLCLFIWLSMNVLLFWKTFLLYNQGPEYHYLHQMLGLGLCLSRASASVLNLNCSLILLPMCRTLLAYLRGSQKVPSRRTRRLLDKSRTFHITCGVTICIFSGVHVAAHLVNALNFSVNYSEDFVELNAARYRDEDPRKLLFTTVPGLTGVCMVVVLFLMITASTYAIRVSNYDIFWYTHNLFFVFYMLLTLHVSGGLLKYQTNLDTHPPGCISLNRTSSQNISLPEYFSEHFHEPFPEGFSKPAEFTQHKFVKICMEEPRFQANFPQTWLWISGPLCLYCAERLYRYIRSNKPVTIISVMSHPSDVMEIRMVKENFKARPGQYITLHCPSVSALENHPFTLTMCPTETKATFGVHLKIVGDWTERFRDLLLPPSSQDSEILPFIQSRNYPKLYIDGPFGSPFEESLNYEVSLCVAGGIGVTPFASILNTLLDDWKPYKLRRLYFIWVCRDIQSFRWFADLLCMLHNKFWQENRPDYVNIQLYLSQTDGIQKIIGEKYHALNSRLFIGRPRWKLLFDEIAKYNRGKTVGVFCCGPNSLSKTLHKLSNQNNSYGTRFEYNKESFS", "test": "Inhibition of human Nox4 expressed in COS7 cells assessed as inhibition of PMA-induced H2O2 production by amplex red dye based fluorescence assay", "type": "cell-based", "conditions": "cos-7"}, "[2]": {"test": "Cytotoxicity against african green monkey COS7 cells at high concentration for 15 mins by fluorescence analysis", "type": "cell-based", "conditions": "chlorocebus aethiops, cos-7, 0.25 h"}, "NADPH oxidase 1": {"target": "T2, NADPH oxidase 1 (Homo sapiens, UniProt Q9Y5S8)", "T2 sequence (Q9Y5S8 whole entry)": "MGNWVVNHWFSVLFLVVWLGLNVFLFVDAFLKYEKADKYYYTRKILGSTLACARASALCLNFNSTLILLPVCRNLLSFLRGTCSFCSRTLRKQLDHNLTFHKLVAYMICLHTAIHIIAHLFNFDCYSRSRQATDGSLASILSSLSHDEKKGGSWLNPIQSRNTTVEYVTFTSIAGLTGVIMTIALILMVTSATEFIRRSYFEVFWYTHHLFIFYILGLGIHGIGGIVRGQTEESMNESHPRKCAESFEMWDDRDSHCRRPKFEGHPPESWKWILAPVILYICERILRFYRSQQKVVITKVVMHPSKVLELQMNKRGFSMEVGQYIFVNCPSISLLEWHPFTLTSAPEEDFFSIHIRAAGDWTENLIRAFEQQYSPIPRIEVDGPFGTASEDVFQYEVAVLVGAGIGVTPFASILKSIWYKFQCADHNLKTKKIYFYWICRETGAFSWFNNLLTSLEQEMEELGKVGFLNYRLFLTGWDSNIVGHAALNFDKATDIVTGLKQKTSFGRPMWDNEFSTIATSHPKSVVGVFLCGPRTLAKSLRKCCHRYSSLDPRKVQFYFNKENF", "test": "Inhibition of human Nox1 expressed in COS7 cells co-transfected with human NOXO1/NOXA1 assessed as inhibition of PMA-induced superoxide generation by L-012 chemiluminescence analysis", "type": "cell-based", "conditions": "cos-7"}, "NADPH oxidase 2 [3]": {"target": "T3, NADPH oxidase 2 (Homo sapiens, UniProt P04839)", "T3 sequence (P04839 whole entry)": "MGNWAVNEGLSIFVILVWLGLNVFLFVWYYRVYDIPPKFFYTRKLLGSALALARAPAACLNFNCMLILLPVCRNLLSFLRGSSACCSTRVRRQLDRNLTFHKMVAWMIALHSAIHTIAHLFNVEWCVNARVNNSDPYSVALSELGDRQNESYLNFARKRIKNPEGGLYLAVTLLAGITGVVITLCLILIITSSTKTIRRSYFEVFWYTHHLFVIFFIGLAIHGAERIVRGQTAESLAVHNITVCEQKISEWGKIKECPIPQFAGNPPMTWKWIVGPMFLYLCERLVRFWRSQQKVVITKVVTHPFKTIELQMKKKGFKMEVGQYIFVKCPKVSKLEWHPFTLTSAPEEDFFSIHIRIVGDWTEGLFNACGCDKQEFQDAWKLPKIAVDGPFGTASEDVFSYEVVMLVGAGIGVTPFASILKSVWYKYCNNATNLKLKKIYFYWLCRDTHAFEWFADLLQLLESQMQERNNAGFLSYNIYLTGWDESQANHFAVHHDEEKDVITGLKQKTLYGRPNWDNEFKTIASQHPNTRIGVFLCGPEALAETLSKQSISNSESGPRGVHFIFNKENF", "test": "Inhibition of human Nox2 expressed in COS7 cells co-transfected with human p22-phox,p47phox and p67-phox assessed as inhibition of PMA-induced H2O2 production by amplex red dye based fluorescence assay", "type": "cell-based", "conditions": "cos-7"}, "NADPH oxidase 2 [4]": {"target": "T3, NADPH oxidase 2", "test": "Inhibition of human Nox2 expressed in COS7 cells co-transfected with human p22-phox,p47phox and p67-phox assessed as inhibition of PMA-induced superoxide generation by L-012 chemiluminescence analysis", "type": "cell-based", "conditions": "cos-7"}, "[5]": {"target": "T4, NADPH oxidase 2 (Homo sapiens) (UniProt P04839)", "T4 sequence (whole entry)": "T3 sequence (P04839 whole entry)", "test": "Inhibition of human Nox2 expressed in COS7 cells co-transfected with human p22-phox,p47phox and p67-phox assessed as inhibition of LiDS-induced superoxide generation at 6.3 uM preincubated for 15 mins followed by addition of LiDS and NADPH", "type": "cell-based", "conditions": "COS-7"}, "[6]": {"target": "T4, NADPH oxidase 2 (Homo sapiens)", "test": "Inhibition of human Nox2 expressed in COS7 cells co-transfected with human p22-phox,p47phox and p67-phox assessed as inhibition of PMA-induced ROS production at 10 uM", "type": "cell-based", "conditions": "COS-7"}, "[7]": {"target": "T5, NADPH oxidase 1 (Homo sapiens) (UniProt Q9Y5S8)", "T5 sequence (whole entry)": "T2 sequence (Q9Y5S8 whole entry)", "test": "Inhibition of human Nox1 expressed in COS7 cells co-transfected with human co-transfected with human NOXO1/NOXA1 assessed as inhibition of PMA-induced ROS production at 10 uM", "type": "cell-based", "conditions": "COS-7"}, "Cardiac muscle cell [8]": {"system": "Cardiac muscle cell", "test": "Inhibition of high-glucose-stimulated hypertrophy in rat cardiomyocyte at 25 uM", "type": "functional"}, "Cardiac muscle cell [9]": {"system": "Cardiac muscle cell", "test": "Inhibition of high-glucose-stimulated ROS production in rat cardiomyocyte at 25 uM", "type": "functional"}, "Fibroblast": {"system": "Fibroblast", "test": "Inhibition of PMA-induced ROS production in human fibroblast at 10 uM", "type": "functional, cell-based"}, "HPAEC [10]": {"system": "HPAEC", "test": "Inhibition of angiotensin-2-stimulated superoxide production in HPAEC cells at 25 uM measured after 24 hrs", "type": "functional, cell-based", "conditions": "Homo sapiens"}, "HPAEC [11]": {"system": "HPAEC", "test": "Inhibition of high-glucose-stimulated superoxide production in HPAEC cells at 25 uM measured after 24 hrs", "type": "functional, cell-based", "conditions": "Homo sapiens"}}, "note": "Calls of active or inactive are those of the source. The calls are words filed in the database; no cut-off is given here.", "data": [{"smiles": "C=C(C)CC1C2c3c(Br)cccc3C(CC2(C)C)N1Cc1ccnc2ccccc12", "note": "(racemic)", "values": [{"measurement": "inhibition (INH)", "setting": "[1]", "value": "Not Active"}, {"measurement": "IC50", "setting": "NADPH oxidase 4", "value": "Not Active"}]}, {"smiles": "C=C(C)CC1NC2CC(C)(C)C1c1c(-c3ccc(Cl)c(Cl)c3)cccc12", "note": "(racemic)", "values": [{"measurement": "inhibition (INH)", "setting": "[1]", "value": "Not Active"}]}, {"smiles": "C=C(C)CC1C2c3c(Br)cccc3C(CC2(C)C)N1Cc1cc(C)on1", "note": "(racemic)", "values": [{"measurement": "inhibition (INH)", "setting": "[1]", "value": "Not Active"}]}, {"smiles": "C=C(C)CC1C2c3c(-c4ccc(Cl)c(Cl)c4)cccc3C(CC2(C)C)N1Cc1ccc2c(c1)OCO2", "note": "(racemic)", "values": [{"measurement": "inhibition (INH)", "setting": "[1]", "value": "Not Active"}, {"measurement": "IC50", "setting": "NADPH oxidase 4", "value": "Not Active"}]}, {"smiles": "C=C(C)CC1C2c3c(Br)cccc3C(CC2(C)C)N1Cc1cccc(F)c1", "note": "(racemic)", "values": [{"measurement": "inhibition (INH)", "setting": "[1]", "value": "Not Active"}]}, {"smiles": "C=C(C)CC1NC2CC(C)(C)C1c1ccccc12", "note": "(racemic)", "values": [{"measurement": "inhibition (INH)", "setting": "[1]", "value": "Not Active"}, {"measurement": "IC50", "setting": "NADPH oxidase 4", "value": "Not Active"}]}, {"smiles": "C=C(C)C[C@@H]1N[C@H]2CC(C)(C)[C@@H]1c1c(Br)ccc(Br)c12", "values": [{"measurement": "inhibition (INH)", "setting": "[1]", "value": "Not Active"}, {"measurement": "IC50", "setting": "NADPH oxidase 4", "value": "Not Active"}, {"measurement": "Activity", "setting": "[2]", "value": "Toxic"}]}, {"smiles": "C=C(C)CC1C2c3ccccc3C(CC2(C)C)N1Cc1cccc(F)c1", "note": "(racemic)", "values": [{"measurement": "inhibition (INH)", "setting": "[1]", "value": "Not Active"}]}, {"smiles": "C=C(C)CC1C2c3c(Br)cccc3C(CC2(C)C)N1Cc1c[nH]c2ccccc12", "note": "(racemic)", "values": [{"measurement": "inhibition (INH)", "setting": "[1]", "value": "Not Active"}, {"measurement": "IC50", "setting": "NADPH oxidase 4", "value": "Not Active"}]}, {"smiles": "C=C(C)CC1C2c3c(Br)cccc3C(CC2(C)C)N1Cc1ccc2c(c1)OCO2", "note": "(racemic)", "values": [{"measurement": "inhibition (INH)", "setting": "[1]", "value": "Not Active"}]}, {"smiles": "CC(C)CC1NC2CC(C)(C)C1c1c(Br)cccc12", "note": "(racemic)", "values": [{"measurement": "inhibition (INH)", "setting": "[1]", "value": "Not Active"}, {"measurement": "Activity", "setting": "[2]", "value": "Toxic"}]}, {"smiles": "C=C(C)CC1C2c3c(Br)cccc3C(CC2(C)C)N1S(C)(=O)=O", "note": "(racemic)", "values": [{"measurement": "inhibition (INH)", "setting": "[1]", "value": "Not Active"}, {"measurement": "IC50", "setting": "NADPH oxidase 1", "value": "Not Active"}]}, {"smiles": "C=C(C)CC1C2c3c(Br)cccc3C(CC2(C)C)N1S(=O)(=O)c1ccc(F)cc1", "note": "(racemic)", "values": [{"measurement": "inhibition (INH)", "setting": "[1]", "value": "Not Active"}, {"measurement": "IC50", "setting": "NADPH oxidase 4", "value": "Not Active"}]}, {"smiles": "C=C(C)C[C@@H]1N[C@H]2CC(C)(C)[C@@H]1c1c(-c3cccnc3)cccc12", "note": "(racemic)", "values": [{"measurement": "IC50", "setting": "NADPH oxidase 2 [3]", "value": "Not Active"}, {"measurement": "IC50", "setting": "NADPH oxidase 2 [4]", "value": "Not Active"}]}, {"smiles": "C=C(C)CC1C2c3c(-c4ccc(Cl)c(Cl)c4)cccc3C(CC2(C)C)N1CCCCC", "note": "(racemic)", "values": [{"measurement": "inhibition (INH)", "setting": "[1]", "value": "Not Active"}]}, {"smiles": "C=C(C)CC1NC2CC(C)(C)C1c1c(Br)cccc12", "note": "(racemic)", "values": [{"measurement": "inhibition", "setting": "[5]", "value": "Active"}, {"measurement": "inhibition (INH)", "setting": "[1]", "value": "Not Active"}, {"measurement": "Activity", "setting": "[2]", "value": "Toxic"}]}, {"smiles": "C=C(C)CC1C2c3c(Br)cccc3C(CC2(C)C)N1CCCCC", "note": "(racemic)", "values": [{"measurement": "inhibition (INH)", "setting": "[1]", "value": "Not Active"}, {"measurement": "inhibition", "setting": "[6]", "value": "Active"}, {"measurement": "inhibition", "setting": "[7]", "value": "Active"}, {"measurement": "inhibition", "setting": "Cardiac muscle cell [8]", "value": "Active"}, {"measurement": "inhibition", "setting": "Cardiac muscle cell [9]", "value": "Active"}, {"measurement": "inhibition", "setting": "Fibroblast", "value": "Active"}, {"measurement": "inhibition", "setting": "HPAEC [10]", "value": "inactive"}, {"measurement": "inhibition", "setting": "HPAEC [11]", "value": "Active"}]}]}
